The assay addresses PolQ ATPase enzyme (1-894) (Homo sapiens (Human), UniProt O75417). Description: Polθ ATPase enzymatic assay (0.5 nM enzyme concentration), ADP-Glo. It is filed as biochemical. Particulars: average IC50; 0.5 nM PolQ ATPase enzyme (1-894). Here is the method:
PolQ ATPase enzyme (1-894) at 0.5 nM is incubated with a 10-point concentration response of inhibitors for 15 min at rt in the following buffer: 50 mM Tris Cl pH 7.5, 10% glycerol, 5 mM DTT, 10 mM MgCl2, 0.1 mg/ml BSA. Following pre-incubation with inhibitors, DNA (Fork C) at 20 nM and ATP at 100 μM are added to start the reaction. Enzymatic reaction proceeds at rt for 180 min ATP consumption is measured using the ADP-Glo assay from Promega. Luminescence is read on the Envision and IC50 are determined using the variable slope 4-parameters equation.
Oligos are annealed by heating at 9500 for 5 min in the following buffer (10 mM Tris-HCl pH7.5, 50 mM NaCl, 1 mM EDTA) and cooled to rt. […]
Background: In ADP-Glo the light output rises with the ADP produced.
Sequence of PolQ ATPase enzyme (1-894) (O75417 1-894): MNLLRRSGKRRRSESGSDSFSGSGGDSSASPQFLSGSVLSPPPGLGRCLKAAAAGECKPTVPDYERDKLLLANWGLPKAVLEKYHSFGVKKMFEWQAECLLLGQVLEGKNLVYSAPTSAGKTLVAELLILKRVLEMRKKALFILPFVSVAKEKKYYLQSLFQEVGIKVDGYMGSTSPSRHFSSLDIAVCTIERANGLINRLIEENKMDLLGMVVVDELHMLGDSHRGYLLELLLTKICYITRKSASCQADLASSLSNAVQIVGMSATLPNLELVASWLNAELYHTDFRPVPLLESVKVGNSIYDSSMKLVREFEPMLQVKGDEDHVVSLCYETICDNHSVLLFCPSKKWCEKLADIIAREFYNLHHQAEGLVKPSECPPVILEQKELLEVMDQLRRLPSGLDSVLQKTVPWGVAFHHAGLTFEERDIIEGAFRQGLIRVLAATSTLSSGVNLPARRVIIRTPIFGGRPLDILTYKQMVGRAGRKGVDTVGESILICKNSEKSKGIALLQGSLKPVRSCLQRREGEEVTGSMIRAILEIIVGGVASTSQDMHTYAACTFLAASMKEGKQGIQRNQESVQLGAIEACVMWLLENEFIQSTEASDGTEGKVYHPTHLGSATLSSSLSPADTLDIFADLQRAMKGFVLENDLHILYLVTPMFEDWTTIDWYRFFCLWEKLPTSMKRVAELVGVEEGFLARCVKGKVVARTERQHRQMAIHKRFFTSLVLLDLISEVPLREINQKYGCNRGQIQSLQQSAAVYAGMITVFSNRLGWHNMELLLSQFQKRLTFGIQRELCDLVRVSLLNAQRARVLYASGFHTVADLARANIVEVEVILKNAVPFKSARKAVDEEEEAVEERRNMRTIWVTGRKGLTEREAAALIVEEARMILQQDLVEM
What is called IC50 is the concentration that inhibits the measured activity by half. A high value points to weaker potency. As for `COc1cnc(C(F)F)cc1-c1cc(C#CC2(C)CCCO2)ncc1C(=O)Nc1nnc(C#CC2CC2)s1` (stereo not shown) [Compound 151], the IC50 is below 0.25 nM. Then `COc1cnc(C(F)F)cc1-c1cc(N2CCCCCC2=O)ncc1C(=O)Nc1nnc(C#CC2CC2)s1` [Compound 394], with below 0.25 nM; and `COc1ccc(C(F)(F)F)cc1-c1cn(CC(=O)N(C)C)c(=O)cc1C(=O)Nc1nnc(C#Cc2cc(C)[nH]n2)s1` [Compound 81], with below 0.25 nM. Then `COc1cnc(C(F)F)cc1-c1cc(-c2cn(C)nc2F)ncc1C(=O)Nc1nnc(C#CC2CC2)s1` [Compound 416], with 0.69 nM; and `COc1cnc(Cl)cc1-c1cc(C#N)ncc1C(=O)Nc1nnc(C#CC2CC2)s1` [Compound 72], with 0.62 nM; and `COc1cnc(C(F)F)cc1-c1cc(N2CCCN(C)CC2=O)ncc1C(=O)Nc1nnc(C#CC2CC2)s1` [Compound 441], with 0.43 nM. As to `COc1cnc(C(F)F)cc1-c1cc(-c2cnn(CCO)c2)ccc1C(=O)Nc1nnc(C#CC2CC2)s1` [Compound 134], the IC50 was below 0.25 nM.

The compound `COc1cnc(C(F)F)cc1-c1cc(N2CCN3CCCC3C2=O)ncc1C(=O)Nc1nnc(C#CC2CC2)s1` (stereo not shown) [Compound 415] returned an IC50 of 0.25 nM. `COc1cnc(C(F)F)cc1-c1cc(C2CCOCC2)ncc1C(=O)Nc1nnc(C#CC2CC2)s1` [Compound 270] registered a concentration for half-maximal inhibition (IC50) of 9.9 nM. Consider `COc1cnc(C(F)F)cc1-c1cc(N2CCOC3(CC3)C2=O)ncc1C(=O)Nc1nnc(C#CC2CC2)s1` [Compound 158], for which the IC50 was below 0.25 nM. For the compound `COc1cnc(C(F)F)cc1-c1cc(-n2ccnc2)ncc1C(=O)Nc1nnc(C#CC2CC2)s1` [Compound 262], inhibition was half-maximal at 0.29 nM (IC50).

Take `COc1cnc(C(F)F)cc1-c1cc(-c2ccncn2)ncc1C(=O)Nc1nnc(C#CC2CC2)s1` [Compound 135]: the concentration for half-maximal inhibition (IC50) is below 0.25 nM. For `COc1cnc(C(F)F)cc1-c1cc(-n2cccc(F)c2=O)ncc1C(=O)Nc1nnc(C#CC2CC2)s1` [Compound 449], the IC50 is below 0.25 nM. Take `COc1cnc(C(F)F)cc1-c1cc(C#CC2(C(=O)N(C)C)CC2)ncc1C(=O)Nc1nnc(C#CC2CC2)s1` [Compound 211]: the half-maximal inhibitory concentration (IC50) was below 0.25 nM. Then `Cc1cnc(C(F)F)cc1-c1cnccc1C(=O)Nc1nnc(C#CC2CC2)s1` [Compound 279], with 1.5 nM; and `COc1cnc(Cl)cc1-c1cc(C#CC2(O)CCOCC2)ccc1C(=O)Nc1nnc(C#CC2CC2)s1` [Compound 53], with 0.31 nM; and `COc1cnc(C(F)F)cc1-c1cc(C#CC2(O)CCS(=O)(=O)CC2)ccc1C(=O)Nc1ncc(C#CC2CC2)s1` [Compound 238], with 3.6 nM. The same measure for `COc1cnc(Cl)cc1-c1cn2ncnc2cc1C(=O)Nc1nnc(C#CC2CC2)s1` [Compound 96]: 2.6 nM; for `COc1ccc(C(F)F)cc1-c1cn(C)c(=O)cc1C(=O)Nc1nnc(C#CC2CC23CC3)s1` (stereo not shown) [Compound 42]: 1.8 nM. Take `COc1ccc(C(F)F)cc1-c1cnccc1C(=O)Nc1nnc(C#CC2CC23CC3)s1` (stereo not shown) [Compound 55]: the IC50 was below 0.25 nM. Then `Cc1cc(C#Cc2nnc(NC(=O)c3ccncc3-c3cc(F)ccc3Cl)s2)n[nH]1` [Compound 29], with 0.6 nM; and `COc1cnc(C(F)F)cc1-c1cc(OCC2CC2)ncc1C(=O)Nc1nnc(C#CC2CC2)s1` [Compound 180], with 4.6 nM; and `COc1cnc(C(F)(F)F)cc1-c1cn(C)c(=O)cc1C(=O)Nc1nnc(C#CC2CC2)s1` [Compound 59], with 1.89 nM.

In turn, `COc1cnc(C(F)F)cc1-c1cn(C)c(=O)cc1C(=O)Nc1nnc(C#CC2CC2)s1` [Compound 37, N-(5-(cyclopropylethynyl)-1,3,4-thiadiazol-2-yl)-2′-(difluoromethyl)-5′-methoxy-1-methyl-6-oxo-1,6-dihydro-[3,4′-bipyridine]-4-carboxamide] registered a half-maximal inhibitory concentration (IC50) of 3.3 nM. The same measure for `COc1cnc(C(F)F)cc1-c1cc(C2C[C@H]2C(=O)N(C)C)ccc1C(=O)Nc1nnc(C#CC2CC2)s1` (stereo partly shown) [Compound 363]: below 0.25 nM; for `COc1cnc(C(F)F)cc1-c1cc(C#CC2(OC)CCOCC2)ccc1C(=O)Nc1nnc(C#CC2CC2)s1` [Compound 246]: 1.1 nM.

As for `COc1cnc(C(F)F)cc1-c1cc(-c2nnc(C)o2)ccc1C(=O)Nc1nc(C#CC2CC2)cs1` [Compound 374], the concentration for half-maximal inhibition (IC50) is above 100 nM.

`COc1cnc(C(F)F)cc1-c1cc(CC(=O)N2CCOCC2)ccc1C(=O)Nc1nnc(C#CC2CC2)s1` [Compound 228] yielded an IC50 below 0.25 nM. `COc1cnc(C(F)F)cc1-c1cc(-n2ccc(C)c(F)c2=O)ncc1C(=O)Nc1nnc(C#CC2CC2)s1` [Compound 466] had a 50% inhibitory concentration (IC50) below 0.25 nM. The same measure for `COc1cnc(C(F)F)cc1-c1cc(-n2ccc(C)c(C)c2=O)ncc1C(=O)Nc1nnc(C#CC2CC2)s1` [Compound 467]: below 0.25 nM; for `O=C(Nc1ncc(C#CC2CC2)s1)c1cc(=O)n(Cc2ncco2)cc1-c1cc(C(F)F)ccc1Cl` [Compound 207]: 2.6 nM.

Turning to `COc1cnc(C(F)F)cc1-c1cc(N2CC3CC3CC2=O)ncc1C(=O)Nc1nnc(C#CC2CC2)s1` (stereo not shown) [Compound 388], the half-inhibitory concentration (IC50) was below 0.25 nM. `COc1cnc(C(F)F)cc1-c1cc(-c2cccc(C)n2)ncc1C(=O)Nc1nnc(C#CC2CC2)s1` [Compound 422]: half-maximal inhibition (IC50) was put at 0.54 nM. As for `COc1ccc(C(F)(F)F)cc1-c1cc(C#CC2CCCOC2)ncc1C(=O)Nc1nnc(C#CC2CC2)s1` (stereo not shown) [Compound 249], 0.77 nM corresponded to half-maximal inhibition (IC50). Consider `COC(=O)N1CCN(c2ccc(C(=O)Nc3nnc(C#CC4CC4)s3)c(-c3cc(C(F)F)ncc3OC)c2)C(=O)C1` [Compound 123], for which the IC50 is below 0.25 nM. As to `COc1cnc(Cl)cc1-c1cn(C)c(=O)cc1C(=O)Nc1nnc(C#CC2CC2)s1` [Compound 32, 2′-chloro-N-(5-(cyclopropylethynyl)-1,3,4-thiadiazol-2-yl)-5′-methoxy-1-methyl-6-oxo-1,6-dihydro-[3,4′-bipyridine]-4-carboxamide], the 50% inhibitory concentration (IC50) is 0.66 nM. The same measure for `COc1cnc(C(F)F)cc1-c1cc(C)ncc1C(=O)Nc1nnc(C#CC2CC2)s1` [Compound 278]: below 0.25 nM; for `COc1cnc(Cl)cc1-c1cc(Oc2nccs2)ccc1C(=O)Nc1nnc(C#CC2CC2)s1` [Compound 302]: 0.35 nM; for `COc1cnc(Cl)cc1-c1cc(-c2cn(C)nn2)ccc1C(=O)Nc1nnc(C#CC2CC2)s1` [Compound 300]: 0.5 nM. The same measure for `COc1cnc(C(F)F)cc1-c1cc(N2CC3(CCOCC3)CC2=O)ncc1C(=O)Nc1nnc(C#CC2CC2)s1` [Compound 360]: 7.2 nM.

With `COc1cnc(Cl)cc1-c1cc(-c2cn[nH]c2)ccc1C(=O)Nc1nnc(C#CC2CC2)s1` [Compound 312], half-maximal inhibition (IC50) was put at 0.94 nM.

The compound `C#CC1CC1c1nnc(NC(=O)c2ccc(N3CCOCC3=O)cc2-c2cc(C(F)F)ncc2OC)s1` (stereo not shown) [Compound 397] returned an IC50 of 0.39 nM. Then `COc1cnc(C(F)F)cc1-c1cc(C#CC2CCOCC2)ncc1C(=O)Nc1nnc(C#CC2CC2)s1` [Compound 268, N-(5-(cyclopropylethynyl)-1,3,4-thiadiazol-2-yl)-2′-(difluoromethyl)-5′-methoxy-6-((tetrahydro-2H-pyran-4-yl)ethynyl)-[4,4′-bipyridine]-3-carboxamide], with 0.28 nM; and `COc1cnc(C(F)F)cc1-c1cc(Cl)ncc1C(=O)Nc1nnc(C#CC2CC2)s1` [Compound 291], with 0.35 nM; and `COc1ccc(C(F)(F)F)cc1-c1cn(CC(N)=O)c(=O)cc1C(=O)Nc1nnc(C#Cc2cc(C)[nH]n2)s1` [Compound 94], with below 0.25 nM.

In turn, `COc1cnc(C(F)F)cc1-c1cc(C#CC2(O)CCOCC2)ncc1C(=O)Nc1nnc(C#CC2CC2)s1` [Compound 255] registered an IC50 of 0.26 nM. In other words, the sub-nanomolar range. In turn, `COC(=O)N1CCN(c2cc(-c3cc(C(F)F)ncc3OC)c(C(=O)Nc3nnc(C#CC4CC4)s3)cn2)C(=O)C1` [Compound 358] had an IC50 below 0.25 nM.

The compound `COc1cnc(C(F)F)cc1-c1cc(-c2cnn(C3CCN(C)CC3)c2)ncc1C(=O)Nc1nnc(C#CC2CC2)s1` [Compound 399] had a half-maximal inhibitory concentration (IC50) of 1.5 nM.

`COc1cnc(C(F)F)cc1-c1cc(N(C)C#N)ccc1C(=O)Nc1nnc(C#CC2CC2)s1` [Compound 203] gave a concentration for half-maximal inhibition (IC50) of 2.9 nM. The same measure for `COc1cnc(C(F)F)cc1-c1cc(C(=O)N(C)C)ccc1C(=O)Nc1nnc(C#CC2CC2)s1` [Compound 258]: 2.9 nM; for `COc1cnc(C(F)F)cc1-c1cc(N2CCN(C(C)=O)CC2)ccc1C(=O)Nc1nnc(C#CC2CC2)s1` [Compound 366]: 3 nM; for `COc1cnc(C(F)F)cc1-c1cc(N2CC[C@@H]3C[C@@H]3C2=O)ncc1C(=O)Nc1nnc(C#CC2CC2)s1` [Compound 384]: below 0.25 nM. With `COc1cnc(C(F)F)cc1-c1cc(-c2ccn(C(F)F)n2)ncc1C(=O)Nc1nnc(C#CC2CC2)s1` [Compound 350], the 50% inhibitory concentration (IC50) is below 0.25 nM.

On to `COc1cnc(C(F)F)cc1-c1cc(-n2ccc(Cl)cc2=O)ncc1C(=O)Nc1nnc(C#CC2CC2)s1` [Compound 459], for which the IC50 was below 0.25 nM. The same measure for `C#C[C@H]1CC1c1nnc(NC(=O)c2cnc(-n3ccc(C)cc3=O)cc2-c2cc(C(F)F)ncc2OC)s1` (stereo partly shown) [Compound 431]: below 0.25 nM; for `COc1ccc(C(F)(F)F)nc1-c1cnccc1C(=O)Nc1nnc(C#CC2CC2)s1` [Compound 329]: 4.1 nM. The same measure for `COc1cnc(C(F)F)cc1-c1cc(N2CCN(C(C)=O)CC2=O)ccc1C(=O)Nc1nnc(C#CC2CC2)s1` [Compound 137]: 0.26 nM; for `COc1cnc(C(F)F)cc1-c1cc(-n2cccn2)ncc1C(=O)Nc1nnc(C#CC2CC2)s1` [Compound 261]: 0.62 nM.

The record behind these values is patent US20250026748A1, “N-(5-SUBSTITUTED-[(1,3,4-THIADIAZOLYL) OR (THIAZOLYL)])(SUBSTITUTED)CARBOXAMIDE COMPOUNDS AND USE THEREOF FOR INHIBITING HUMAN POLYMERASE THETA” (Repare Therapeutics Inc., priority 2021, published 2025).
